What was measured:
[1] = test system: 10-mer complementary DNA; assay: Binding affinity for complementary DNA by Tm (UV/Vis); conditions: aqueous buffer pH 7.16, 10 mM sodium phosphate, 100 mM NaCl; for Tm Value, 10-mer DNA against C-Terminal: duplex of PNA and 10-mer complementary DNA targeting the C-terminal of PNA; for Tm Value, 10-mer DNA against N-Terminal: duplex of PNA and 10-mer complementary DNA targeting the N-terminal of PNA
Method: The PNA derivatives of Formula I were evaluated for their binding affinity for 10-mer DNAs complementarily targeting either the N-terminal or C-terminal. The binding affinity was assessed by Tm value for the duplex between PNA and 10-mer complementary DNA. The duplex between PNA derivatives and fully complementary DNAs show Tm values too high to be reliably determined in aqueous buffer solution, since the buffer solution tends to boil during the Tm measurement. Tm values for full length PNAs can be predicted and compared based on the Tm value for the duplex between PNA and 10-mer complementary DNA.
Tm values were determined on a UV/Vis spectrometer as follows. A mixed solution of […] PNA oligomer and 4 μM complementary 10-mer DNA in 4 mL aqueous buffer (pH 7.16, 10 mM sodium phosphate, 100 mM NaCl) in 15 mL polypropylene falcon tube was incubated at 90° C. for a few minute and slowly cooled down to ambient temperature. Then the solution was transferred into a 3 mL quartz UV cuvette equipped with an air-tight cap, and the cuvette was mounted on an Agilent 8453 UV/Visible spectrophotometer. The absorbance changes at 260 nm were recorded with increasing the temperature of the cuvette by either 0.5 or 1° C. per minute. From the absorbance vs temperature curve, the temperature showing the largest increase rate in absorbance was read out as the Tm between PNA and 10-mer DNA. The DNAs for Tm measurement were purchased from Bioneer (www.bioneer.com, Dajeon, Republic of Korea) and used without further purification.

[2] = test system: ACC2 exon 12; assay: Exon skipping of ACC2 mRNA in C2C12 (nested RT-PCR, electrophoresis, Sanger sequencing); format: cell-based; conditions: C2C12 cells, 5 hours, 0.1 aM to 1 fM
Method: “ASO 1” was evaluated for its ability to induce the skipping of ACC2 “exon 12” in C2C12 cells as described below.
[Cell Culture & ASO Treatment] C2C12 cells (2×10^5) (Cat. No. CRL-1772, ATCC) were grown in 60 mm culture dish containing DMEM medium (Dulbecco Modified Eagle Medium: DMEM) (Cat. No. 12-604F, Lonza) supplemented with 10% FBS (Fetal Bovine Serum) (Cat. No. 10099-41, GIBCO) and 1% streptomycin/penicillin (Cat. No. 15140-122, GIBCO) under 5% CO2 atmosphere at 37° C. The cells were treated either with nothing (negative control) or with an aliquot of aqueous stock solution of “ASO 1” for 5 hours at 100 zM to 1 fM.
[RNA Extraction & Nested PCR] Total RNA was extracted using RNeasy Mini kit (Qiagen, Cat. No. 714106) according to the manufacturer's instructions from “ASO 1” treated cells and cDNA was prepared from 200 ng of RNA by use of SuperScript™ III One-Step RT-PCR System (Cat. No. 12574-018, Invitrogen). […]
[Identification of Exon Skipping Products Electrophoresis] […] The target bands from “ASO 1” treatment were collected and analyzed by Sanger Sequencing to evaluate exon skipping sequence.

[3] = test system: human ACC2 mRNA; assay: Inhibition of ACC2 mRNA formation in C2C12 (Real-Time qPCR); format: cell-based, mouse; conditions: C2C12 cells, 24 hours; for reduction of ACC2 mRNA compared to control: standardized by GAPDH; for amount of ACC2 mRNA: 100 zM to 1 fM, concentration-dependently
Method: “ASO 1” was evaluated by Real-Time qPCR for its ability to down-regulate the ACC2 mRNA formation in C2C12 as described below.
[Cell Culture & ASO Treatment] C2C12 cells (Cat. No. CRL-1772, ATCC) were maintained in Dulbecco Modified Eagle Medium (DMEM, Cat. No. 12-604F, Lonza) supplemented with 10% Fetal Bovine Serum (Cat. No. 10099-41, GIBCO) and 1% streptomycin/penicillin (Cat. No. 15140-122, GIBCO), which was grown at 37° C. and under 5% CO2 condition. C2C12 cells (2×10^5) stabilized for 24 hours in 60 mm culture dish were incubated for 24 hours with “ASO 1” at 0 (negative control) and 100 zM to 1 fM.
[RNA Extraction & cDNA Synthesis] Total RNA was extracted using RNeasy Mini kit (Qiagen, Cat. No. 714106) according to the manufacturer's instructions from “ASO 1” treated cells and cDNA was prepared from 400 ng of RNA by use of PrimeScript™ 1st strand cDNA Synthesis Kit (Takara, Cat. No. 6110A). To a mixture of 400 ng of RNA, 1 microliter of random hexamer, and 1 microliter of dNTP (10 mM) in PCR tube was added DEPC-treated water to a total volume of 10 microliter, which was reacted at 65° C. for 5 minutes. cDNA was synthesized by adding 10 microliter of PrimeScript RTase to the reaction mixture and reacting at 30° C. for 10 minutes and at 42° C. for 60 minutes, successively.
[Quantitative Real-Time PCR] In order to evaluate the expression level of […] ACC2 mRNA real-time qPCR was performed with synthesized cDNA by use of Tagman probe. The mixture of cDNA, Taqman probe (Thermo, Mm01204651), IQ supermix (BioRad, Cat. No. 170-8862), and nuclease free water in PCR tube was under reaction by use of CFX96 Touch Real-Time system (BioRad) according to the cycle conditions specified as follows: at 95° C. for 3 min (primary denaturation) followed by 50 cycles of 10 sec at 95° C. (denaturation) and 30 sec at 60° C. (annealing and polymerization). Fluorescence intensity was measured at the end of every cycle and the result of PCR was evaluated by the melting curve. After the threshold cycle (Ct) of each gene was standardized by that of GAPDH, the change of Ct was compared and analyzed.
“ASO 6” was evaluated by Real-Time qPCR for its ability to down-regulate the ACC2 mRNA formation in C2C12 as described below.
[Cell Culture & ASO Treatment] C2C12 cells (Cat. No. CRL-1772, ATCC) were maintained in Dulbecco Modified Eagle Medium (DMEM, Cat. No. 12-604F, Lonza) supplemented with 10% Fetal Bovine Serum (Cat. No. 10099-41, GIBCO) and 1% streptomycin/penicillin (Cat. No. 15140-122, GIBCO), which was grown at 37° C. and under 5% CO2 condition. C2C12 cells (2×10^5) stabilized for 24 hours in 60 mm culture dish were incubated for 24 hours with “ASO 6” at 0 (negative control) and 100 zM to 1 fM.
[RNA Extraction & cDNA Synthesis] Total RNA was extracted using RNeasy Mini kit (Qiagen, Cat. No. 714106) according to the manufacturer's instructions from “ASO 6” treated cells and cDNA was prepared from 400 ng of RNA by use of PrimeScript™ 1st strand cDNA Synthesis Kit (Takara, Cat. No. 6110A). To a mixture of 400 ng of RNA, 1 microliter of random hexamer, and 1 microliter of dNTP (10 mM) in PCR tube was added DEPC-treated water to a total volume of 10 microliter, which was reacted at 65° C. for 5 minutes. cDNA was synthesized by adding 10 microliter of PrimeScript RTase to the reaction mixture and reacting at 30° C. for 10 minutes and at 42° C. for 60 minutes, successively.
“ASO 5” was evaluated by the same method as described below.
[Cell Culture & ASO Treatment] C2C12 cells (Cat. No. CRL-1772, ATCC) were maintained in Dulbecco Modified Eagle Medium (DMEM, Cat. No. 12-604F, Lonza) supplemented with 10% Fetal Bovine Serum (Cat. No. 10099-41, GIBCO) and 1% streptomycin/penicillin (Cat. No. 15140-122, GIBCO), which was grown at 37° C. and under 5% CO2 condition. C2C12 cells (2×10^5) stabilized for 24 hours in 60 mm culture dish were incubated for 24 hours with “ASO 5” at 0 (negative control) and 100 zM to 1 fM.
[RNA Extraction & cDNA Synthesis] […]

Substance: (N→C) Fethoc-TA(5)C(1O2)-TGA(5)-CGA(5)-AA(5)T-G(6)GC(1O2)-C—NH2 [ASO 2]
- Tm Value, 10-mer DNA against C-Terminal [1]: 82.01 °C
- Tm Value, 10-mer DNA against N-Terminal [1]: 82.99 °C

Substance: (N→C) Fethoc-CTG(6)-ACG(6)-AA(5)A-TG(6)G-C(1O2)C—NH2 (CTNACNANATNGNC; PNA with modified bases, Fethoc N-cap, C-amide; PNA modified oligonucleotide; (1)..(14) PNA modified oligonucleotide, human acetyl-CoA carboxylase2 targeted artificial sequence; (1)..(1) Carbamated N-terminal; modified_base (3)..(3) n is a, g, c, or t; modified_base (6)..(6) n is a, g, c, or t; modified_base (8)..(8) n is a, g, c, or t; modified_base (11)..(11) n is a, g, c, or t; modified_base (13)..(13) n is a, g, c, or t) [ASO 1, peptide nucleic acid derivative targeting the 5′ splice site of exon 12 in the human ACC2 pre-mRNA]
- Tm Value, 10-mer DNA against C-Terminal [1]: 79.60 °C
- Tm Value, 10-mer DNA against N-Terminal [1]: 72.80 °C
- Exon skipping (splice variant ACC2 mRNA) [2]: concentration-dependently yielded the splice variant ACC2 mRNA lacking exon 11
- reduction of ACC2 mRNA compared to control ([3]; 1 fM): 30%
- amount of ACC2 mRNA [3]: reduced

Substance: (N→C) Fethoc-CTG(6)-AC(1O2)G-A(5)AA(5)-TG(6)G-C(1O2)C—NH2 [ASO 6]
- reduction of ACC2 mRNA compared to control ([3]; 1 aM): 30%
- reduction of ACC2 mRNA compared to control ([3]; 1 fM): 50%
- amount of ACC2 mRNA [3]: reduced

Substance: (N→C) Fethoc-AC(1O2)T-GA(5)C-GA(5)A-A(5)TG(5)-GC(1O2)-NH2 [ASO 4]
- Tm Value, 10-mer DNA against C-Terminal [1]: 82.01 °C
- Tm Value, 10-mer DNA against N-Terminal [1]: 80.01 °C

Substance: (N→C) Fethoc-TA(5)C-TG(5)A-C(1O2)GA(5)-AA(5)T-G(5)G-NH2 [ASO 3]
- Tm Value, 10-mer DNA against C-Terminal [1]: 78.99 °C
- Tm Value, 10-mer DNA against N-Terminal [1]: 76.03 °C

Substance: (N→C) Fethoc-CTG(6)-AC(1O2)G-A(5)AA(5)-TG(6)G-NH2 [ASO 5]
- reduction of ACC2 mRNA compared to control ([3]; 1 aM): 30%
- reduction of ACC2 mRNA compared to control ([3]; 1 fM): 42%
- amount of ACC2 mRNA [3]: reduced

Source: patent publication US11739124B2, “Acetyl-CoA carbosylase2 antisense oligonucleotides” (OLIPASS CORPORATION, priority 2018, dated 2023)
